From ChEMBL document CHEMBL1201862, “PubChem BioAssay data set” (2004)
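A five-concentration, 48-hour dose response in 96-well plates underlies each endpoint, interpolated linearly between surrounding concentrations. Abbreviation: GI50, concentration required for 50% inhibition of growth.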 Activity calls are given as the source filed them. Cut-off read from the data, not from the text of the source: active = GI50 up to about 1.1 µM and inactive = higher.

Experiments:
Experiment in all cases: DTP human tumour cell line panel, 48 h
[1] = test system: UACC-257
[2] = test system: 786-0
[3] = test system: MCF7
[4] = test system: NCI-H226
[5] = test system: KM12
[6] = test system: DU-145
[7] = test system: SK-MEL-2
[8] = test system: Hs-578T
[9] = test system: A498
[10] = test system: NCI-H522
[11] = test system: SN12C
[12] = test system: SNB-19
[13] = test system: U-251
[14] = test system: CAKI-1
[15] = test system: MDA-MB-435
[16] = test system: SW-620
[17] = test system: OVCAR-3
[18] = test system: MDA-MB-231
[19] = test system: SF-539
[20] = test system: HOP-62

Compound	GI50 [1]	GI50 [2]	GI50 [3]	GI50 [4]	GI50 [5]	GI50 [6]	GI50 [7]	GI50 [8]	GI50 [9]	GI50 [10]	GI50 [11]	GI50 [12]	GI50 [13]	GI50 [14]	GI50 [15]	GI50 [16]	GI50 [17]	GI50 [18]	GI50 [19]	GI50 [20]
COc1cccc(C2ON=C(c3ccccc3)N2C23CC4CC(CC(C4)C2)C3)c1 (stereo not given)	> 10 µM (inactive)	> 10 µM (inactive)	> 10 µM (inactive)	4.63 µM (inactive)	> 10 µM (inactive)	> 10 µM (inactive)	> 10 µM (inactive)	> 10 µM (inactive)	> 10 µM (inactive)	> 10 µM (inactive)	> 10 µM (inactive)	> 10 µM (inactive)	> 10 µM (inactive)	> 10 µM (inactive)	> 10 µM (inactive)	> 10 µM (inactive)	9.04 µM (inactive)	> 10 µM (inactive)	> 10 µM (inactive)	> 10 µM (inactive)
O=C1CSC(c2ccccc2)N1c1nc2cc3sc(N4C(=O)CSC4c4ccccc4)nc3cc2s1 (stereo not given)	85.1 µM (inactive)	> 100 µM (inactive)	12.9 µM (inactive)	15.8 µM (inactive)	17.5 µM (inactive)	15.2 µM (inactive)	63.7 µM (inactive)	> 51.2 µM (inactive)	> 100 µM (inactive)	6.87 µM (inactive)	32.4 µM (inactive)	78.3 µM (inactive)	38.2 µM (inactive)	39.5 µM (inactive)	55.6 µM (inactive)	9.95 µM (inactive)	36.6 µM (inactive)	68.7 µM (inactive)	3.03 µM (inactive)	> 100 µM (inactive)
Cc1cccc(C)c1NC(=O)/C(Cl)=C(/Cl)C(=O)O	16.1 µM (inactive)	17.1 µM (inactive)	20.8 µM (inactive)	16.4 µM (inactive)	15.3 µM (inactive)	26.5 µM (inactive)	16.7 µM (inactive)	33.3 µM (inactive)	33.5 µM (inactive)	4.33 µM (inactive)	18.7 µM (inactive)	24.5 µM (inactive)	21.1 µM (inactive)	7.66 µM (inactive)	21.9 µM (inactive)	7.74 µM (inactive)	20.9 µM (inactive)	21.3 µM (inactive)	23.1 µM (inactive)	> 62.2 µM (inactive)
Cc1cccc(C(C)(C)C)c1NC(=O)C(C#N)C1=C(Cl)C(=O)c2ccccc2C1=O (stereo not given)	15.6 µM (inactive)	16.2 µM (inactive)	15.8 µM (inactive)	9.66 µM (inactive)	16.3 µM (inactive)	22 µM (inactive)	16.1 µM (inactive)	21.1 µM (inactive)	24.9 µM (inactive)	13.8 µM (inactive)	17.3 µM (inactive)	18.3 µM (inactive)	16.9 µM (inactive)	16.7 µM (inactive)	16.7 µM (inactive)	14.5 µM (inactive)	15.7 µM (inactive)	14 µM (inactive)	18.1 µM (inactive)	17.7 µM (inactive)
Clc1ccc2ns[s+]c2c1	14.5 µM (inactive)	53.8 µM (inactive)	3.33 µM (inactive)	> 89.7 µM (inactive)	3.66 µM (inactive)	8.79 µM (inactive)	9.35 µM (inactive)	78 µM (inactive)	> 100 µM (inactive)	11.1 µM (inactive)	19.4 µM (inactive)	29.2 µM (inactive)	18.3 µM (inactive)	1.63 µM (inactive)	0.334 µM (active)	6.62 µM (inactive)	31.6 µM (inactive)	25.3 µM (inactive)	3.53 µM (inactive)	4.32 µM (inactive)
NC(=O)NO [HYDROXYUREA]	1810 µM (inactive)	303 µM (inactive)	385 µM (inactive)	773 µM (inactive)	902 µM (inactive)	818 µM (inactive)	2000 µM (inactive)	740 µM (inactive)	693 µM (inactive)	729 µM (inactive)	738 µM (inactive)	1580 µM (inactive)	581 µM (inactive)	270 µM (inactive)	2000 µM (inactive)	1090 µM (inactive)	1240 µM (inactive)	> 1410 µM (inactive)	315 µM (inactive)	904 µM (inactive)
CCc1n[nH]c(=O)n1N	> 100 µM (inactive)	> 100 µM (inactive)	> 100 µM (inactive)	> 100 µM (inactive)	> 100 µM (inactive)	> 100 µM (inactive)	> 100 µM (inactive)	> 100 µM (inactive)	> 100 µM (inactive)	> 100 µM (inactive)	> 100 µM (inactive)	> 100 µM (inactive)	> 100 µM (inactive)	> 100 µM (inactive)	> 100 µM (inactive)	> 100 µM (inactive)	> 100 µM (inactive)	> 100 µM (inactive)	> 100 µM (inactive)	> 100 µM (inactive)
COc1cc(C2c3cc4c(cc3OC(N3CCCC3)C2C)OCO4)cc(OC)c1O (stereo not given)	35.6 µM (inactive)	13.9 µM (inactive)	9.93 µM (inactive)	25.5 µM (inactive)	6.59 µM (inactive)	31.7 µM (inactive)	14.8 µM (inactive)	4.66 µM (inactive)	21.1 µM (inactive)	3.61 µM (inactive)	23.4 µM (inactive)	13.2 µM (inactive)	11.6 µM (inactive)	16.1 µM (inactive)	2.48 µM (inactive)	6.89 µM (inactive)	13.5 µM (inactive)	19.4 µM (inactive)	14.9 µM (inactive)	11.6 µM (inactive)
Clc1c2ncccc2cc2nn[nH]c12	> 100 µM (inactive)	> 100 µM (inactive)	> 100 µM (inactive)	21.3 µM (inactive)	> 100 µM (inactive)	> 100 µM (inactive)	> 100 µM (inactive)	93.8 µM (inactive)	> 100 µM (inactive)	33 µM (inactive)	> 100 µM (inactive)	> 100 µM (inactive)	> 100 µM (inactive)	> 100 µM (inactive)	> 100 µM (inactive)	> 100 µM (inactive)	> 100 µM (inactive)	> 100 µM (inactive)	> 100 µM (inactive)	> 100 µM (inactive)
COc1cc2c(cc1OCCCCOc1cc(-c3ccc(F)cc3)nc(C)n1)N=C[C@@H]1CCCN1C2=O	0.692 µM (active)	0.486 µM (active)	0.502 µM (active)	1.05 µM (active)	0.728 µM (active)	0.225 µM (active)	0.853 µM (active)	1.05 µM (active)	1.01 µM (active)	0.212 µM (active)	0.796 µM (active)	0.689 µM (active)	0.2 µM (active)	0.313 µM (active)	0.652 µM (active)	0.855 µM (active)	0.336 µM (active)	1.04 µM (active)	0.927 µM (active)	0.451 µM (active)
